US20230144619A1, “SALT OF ARYLAMINOPURINE DERIVATIVE, PREPARATION METHOD THEREFOR AND USE THEREOF” (CSPC Zhongqi Pharmaceutical Technology (Shijiazhuang) Co., …, priority 2020, published 2023)
Values after ≈ are worked out from the molar mass of the structure shown.

Tests used:
Type in all cases: physicochemical
[1] = Solubility test (UV spectrophotometer, saturated solutions shaken 24 hours); details: 25° C.; for Solubility, Water medium pH = 1.2: pH=1.2 hydrochloric acid solution; for Solubility, Water medium pH = 4.5: pH=4.5 phosphate buffer solution; for Solubility, Water medium pH = 6.8: pH=6.8 phosphate buffer solution; for Solubility, Water medium: water (purified water)
Description: Detection instrument: Ultraviolet spectrophotometer/Evolution 300
The following solutions with pH=1.2, pH=4.5, and pH=6.8 and water were used as the solvent, and the solvent preparation process was as follows:
(1) pH=1.2 hydrochloric acid solution: To 7.65 mL of hydrochloric acid was added 1000 mL of water, and the mixture was shaken uniformly to obtain the target solution.
(2) pH=4.5 phosphate buffer solution: 6.8 g of potassium dihydrogen phosphate was taken and diluted with water to 1000 mL, and the mixture was shaken uniformly to obtain the target solution.
(2) pH=6.8 phosphate buffer solution: 6.8 g of potassium dihydrogen phosphate and 0.896 g of sodium hydroxide were taken and diluted with water to 1000 mL, and the mixture was shaken uniformly to obtain the target solution.
(4) Water: purified water
Test tubes with stopper were taken, and 10 mL of dissolution media at various pH values were precisely added to the test tubes respectively, and excessive stock drugs were added until supersaturated solutions were formed. The adding amounts were recorded. The solutions were shaken uniformly, sealed with stoppers, and shaken for 24 hours in a shaker. 2 mL of solutions were taken out at different time points respectively, and centrifuged. The resulting supernatants were taken, filtered, and the subsequent filtrates were taken for later use.
The above-mentioned saturated solutions in different solvents were taken, and solvents were added to dilute the solutions to certain volumes. The absorbances were measured at a wavelength of 287 nm.
Preparation of a solution of the reference substance: an appropriate amount of the compound represented by Formula 1 was taken as the reference substance, and precisely weighed. A solvent was added to dissolve and dilute the reference compound to produce a solution containing about 10 μg of the compound represented by Formula 1 per 1 mL. The absorbance was measured at a wavelength of 287 nm to calculate the solubility.
The salts obtained in Examples 1 and 3-17 and the compound represented by Formula 1 were subjected to the solubility test in media and the test results were shown in the following table: […]

[2] = Hygroscopicity test; details: 25±1° C., relative humidity 80%±2% (DVS, 80% RH)
Description: Detection instrument: XPE105DR
(1) A dry stoppered glass weighing bottle was taken, placed in a suitable constant-temperature desiccator at 25° C. 1° C. (with a saturated solution of ammonium chloride or ammonium sulfate in the lower part) or an artificial climate box (with the set temperature of 25° C.±1° C. and the relative humidity of 80%±2%) on the day before the test, and precisely weighed and recorded as the weight (m1).
(2) An appropriate amount of the test sample was taken and spread in the above-mentioned weighing bottle. The thickness of the test sample was generally about 1 mm, and the bottle was precisely weighed and recorded as the weight (m2).
(3) The stopper was removed to open the weighing bottle, and the opened weighing bottle and the stopper were placed under the above-mentioned constant temperature and humidity conditions for 24 hours.
(4) The opened weighing bottle was stoppered, precisely weighed, and recorded as the weight (m3).
Percentage increase in mass=(m3−m2)/(m2−m1)×100%
(5) The description of hygroscopicity characteristics and the definition for the weight gain due to hygroscopicity:
Deliquescence: Sufficient water was absorbed to form a liquid.
Very hygroscopic: the weight gain due to hygroscopicity was not less than 15%.
Hygroscopic: the weight gain due to hygroscopicity was less than 15% but not less than 2%.
Slightly hygroscopic: the weight gain due to hygroscopicity was less than 2% but not less than 0.2%.
Not or nearly not hygroscopic: the weight gain due to hygroscopicity was less than 0.2%.
Appropriate amounts of the salt samples obtained from Examples 1 and 3-17 were subjected to the hygroscopicity test at a temperature of 25±1° C. under a relative humidity of 80%±2%, and the results were as follows: […]

[3] = DSC and TGA tests; details: onset temperature
Description: 6. Differential Scanning Calorimetry-Thermogravimetric Analysis (DSC-TGA)
Detection instrument: NETZSCH STA 449F3
Temperature range: 20° C.-350° C.;
Heating rate: 10.0 (K/min);
7. Differential Scanning Calorimetry (DSC)
Detection instrument: NETZSCH DSC 214 Polyma
Temperature range: 20° C.-250° C.;
Heating rate: 5.0 (K/min);
8. Thermogravimetric Analysis (TGA)
Detection instrument: METTLER and SDT Q600
The salts obtained in Examples 1 and 3-17 and the compound represented by Formula 1 were subjected to the DSC and TGA tests in media, and the test results were shown in the following table: […]

[4] = Accelerated stability test
Description: Appropriate amounts of the salt samples obtained from Examples 1 and 3-17 were placed at a temperature of 25±2° C. under 0%±5% RH in an open environment for 10 days and at a temperature of 40±2° C. under 75%±5% RH in an open environment for 10 days respectively to perform the accelerated tests, and the results were as follows: […]

[5] = Placed at 25 ± 2° C. under 0% ± 5% RH in an open environment for 10 days
[6] = Placed at 40 ± 2° C. under 75% ± 5% RH in an open environment for 10 days

SMILES | Solubility, Water medium pH = 1.2 [1] [mg/mL] | Solubility, Water medium pH = 4.5 [1] [mg/mL] | Solubility, Water medium pH = 6.8 [1] [mg/mL] | Solubility, Water medium [1] [mg/mL] | Weight gain due to hygroscopicity [2] [%] | TGA: starting to lose the acid [3] | TGA: starting to lose the water of crystallization [3] | Appearance [4, 5] | Appearance [4, 6] | Hygroscopicity [2]
CC(C)n1c(Nc2cccnc2)nc2cnc(Nc3ccc(N4CCN(C)CC4)cc3)nc21 [Example 5] | >1000 | >1000 | >1000 | >1000 | 19.62 | ~190 °C (see FIG. 25) | crystallization at about 40° C.; | Liquid | Liquid | Very hygroscopic (the weight gain due to hygroscopicity was not less than 15%.)
CC(C)n1c(Nc2cccnc2)nc2cnc(Nc3ccc(N4CCN(C)CC4)cc3)nc21 [Example 6] | 54.70 | 14.59 | 12.05 | 9.68 (≈ 21.8 mM) | 1.02 | ~170 °C (see FIG. 26) | crystallization at about 40° C.; | Yellow solid | Yellow solid | Slightly hygroscopic (the weight gain due to hygroscopicity was less than 2% but not less than 0.2%.)
CC(C)n1c(Nc2cccnc2)nc2cnc(Nc3ccc(N4CCN(C)CC4)cc3)nc21 [Example 7] | 43.07 | 6.51 | 12.24 | 6.91 (≈ 15.6 mM) | 1.19 | ~180 °C (see FIG. 27) | crystallization at about 40° C.; | Yellow solid | Yellow solid | Slightly hygroscopic (the weight gain due to hygroscopicity was less than 2% but not less than 0.2%.)
CC(C)n1c(Nc2cccnc2)nc2cnc(Nc3ccc(N4CCN(C)CC4)cc3)nc21 [Example 8] | 36.41 | 14.36 | 10.46 | 9.74 (≈ 22 mM) | 1.43 | ~180 °C (see FIG. 28) | crystallization at about 40° C.; | – | – | Slightly hygroscopic (the weight gain due to hygroscopicity was less than 2% but not less than 0.2%.)
CC(C)n1c(Nc2cccnc2)nc2cnc(Nc3ccc(N4CCN(C)CC4)cc3)nc21 [Example 9] | 44.51 | 15.17 | 11.48 | 10.50 (≈ 23.7 mM) | 1.43 | ~170 °C (see FIG. 29) | crystallization at about 40° C.; | – | – | Slightly hygroscopic (the weight gain due to hygroscopicity was less than 2% but not less than 0.2%.)

The next lines start with results.

Solubility, Water medium pH = 1.2 [1] [mg/mL] | Solubility, Water medium pH = 4.5 [1] [mg/mL] | Solubility, Water medium pH = 6.8 [1] [mg/mL] | Solubility, Water medium [1] [mg/mL] | Weight gain due to hygroscopicity [2] [%] | TGA: starting to lose the acid [3] | TGA: starting to lose the water of crystallization [3] | Appearance [4, 5] | Appearance [4, 6] | SMILES | Hygroscopicity [2]
360.00 | 207.53 | 153.30 | 212.73 (≈ 480 mM) | 5.86 | ~120 °C (see FIG. 21) | crystallization at about 40° C.; | – | – | CC(C)n1c(Nc2cccnc2)nc2cnc(Nc3ccc(N4CCN(C)CC4)cc3)nc21 [Example 3] | Hygroscopic (the weight gain due to hygroscopicity was less than 15% but not less than 2%.)
>1000 | >1000 | >1000 | >1000 | 6.94 | ~220 °C (see FIG. 23) | crystallization at about 40° C.; | Liquid | Liquid | CC(C)n1c(Nc2cccnc2)nc2cnc(Nc3ccc(N4CCN(C)CC4)cc3)nc21 [Example 4] | Hygroscopic (the weight gain due to hygroscopicity was less than 15% but not less than 2%.)
66.52 | 13.98 | 6.36 | 2.49 (≈ 5.61 mM) | 0.54 | ~170 °C (see FIG. 30) | crystallization at about 40° C.; | Yellow solid | Yellow solid | CC(C)n1c(Nc2cccnc2)nc2cnc(Nc3ccc(N4CCN(C)CC4)cc3)nc21 [Example 10] | Slightly hygroscopic (the weight gain due to hygroscopicity was less than 2% but not less than 0.2%.)
42.39 | 2.70 | 0.14 | 3.09 (≈ 6.97 mM) | 0.11 | ~140 °C (see FIG. 33) | crystallization at about 40° C.; | – | – | CC(C)n1c(Nc2cccnc2)nc2cnc(Nc3ccc(N4CCN(C)CC4)cc3)nc21 [Example 12] | –
59.71 | 8.42 | 1.12 | 5.06 (≈ 11.4 mM) | 0.05 | ~140 °C (see FIG. 35) | crystallization at about 40° C.; | – | – | CC(C)n1c(Nc2cccnc2)nc2cnc(Nc3ccc(N4CCN(C)CC4)cc3)nc21 [Example 13] | –
129.50 | 90.03 | 90.09 | 76.59 (≈ 173 mM) | 7.67 | ~240 °C (See FIG. 40) | crystallization at about 40° C.; | – | – | CC(C)n1c(Nc2cccnc2)nc2cnc(Nc3ccc(N4CCN(C)CC4)cc3)nc21 [Example 16] | Hygroscopic (the weight gain due to hygroscopicity was less than 15% but not less than 2%.)
33.29 | 21.64 | 31.39 | 16.51 (≈ 37.2 mM) | 1.34 | ~210 °C (see FIG. 41) | crystallization at about 40° C.; | – | – | CC(C)n1c(Nc2cccnc2)nc2cnc(Nc3ccc(N4CCN(C)CC4)cc3)nc21 [Example 17] | Slightly hygroscopic (the weight gain due to hygroscopicity was less than 2% but not less than 0.2%.)
